Experimental data: paper PMC5537602, “TRPA1 channel mediates organophosphate-induced delayed neuropathy” (Cell Discovery, 2017)
Like-named read-outs stand apart in the source and are kept apart here.

Key:
cTRPA1 = biological target: T1, cTRPA1 (Gallus gallus, UniProt W8VTH6); experiment: Whole-cell patch-clamp, HEK293 cells expressing cTRPA1; type: cell-based, chicken
T1 sequence (W8VTH6 1-1126): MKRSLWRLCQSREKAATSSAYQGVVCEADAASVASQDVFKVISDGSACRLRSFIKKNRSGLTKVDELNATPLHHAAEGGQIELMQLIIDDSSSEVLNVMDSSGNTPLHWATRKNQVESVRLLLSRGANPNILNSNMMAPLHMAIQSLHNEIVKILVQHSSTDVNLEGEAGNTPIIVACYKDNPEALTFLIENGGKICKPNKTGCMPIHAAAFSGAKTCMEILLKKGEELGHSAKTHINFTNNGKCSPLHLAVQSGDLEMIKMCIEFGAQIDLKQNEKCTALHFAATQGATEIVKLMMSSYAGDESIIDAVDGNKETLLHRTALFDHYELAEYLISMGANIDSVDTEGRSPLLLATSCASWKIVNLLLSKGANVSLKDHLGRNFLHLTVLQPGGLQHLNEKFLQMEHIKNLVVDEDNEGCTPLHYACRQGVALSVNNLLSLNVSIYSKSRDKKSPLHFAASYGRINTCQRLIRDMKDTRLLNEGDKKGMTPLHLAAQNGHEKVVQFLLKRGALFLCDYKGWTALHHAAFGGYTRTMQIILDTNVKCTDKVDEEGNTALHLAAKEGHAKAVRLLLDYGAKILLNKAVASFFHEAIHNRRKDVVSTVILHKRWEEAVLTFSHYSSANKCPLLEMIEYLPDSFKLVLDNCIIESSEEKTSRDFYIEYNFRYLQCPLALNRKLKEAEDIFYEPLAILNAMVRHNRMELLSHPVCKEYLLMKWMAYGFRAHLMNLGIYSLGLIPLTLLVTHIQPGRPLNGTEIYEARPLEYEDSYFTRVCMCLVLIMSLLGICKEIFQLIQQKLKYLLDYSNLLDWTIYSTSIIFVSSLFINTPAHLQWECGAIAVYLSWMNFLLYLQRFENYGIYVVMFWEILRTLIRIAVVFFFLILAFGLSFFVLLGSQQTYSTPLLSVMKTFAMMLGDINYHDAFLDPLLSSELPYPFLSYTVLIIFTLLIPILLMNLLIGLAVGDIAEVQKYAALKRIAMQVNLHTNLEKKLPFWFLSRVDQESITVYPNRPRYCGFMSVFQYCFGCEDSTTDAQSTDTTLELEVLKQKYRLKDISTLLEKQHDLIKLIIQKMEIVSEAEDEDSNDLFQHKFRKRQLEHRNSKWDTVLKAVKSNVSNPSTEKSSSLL
Protocol: (§1) All cell culture reagents were purchased from Life Technologies. HEK293 cells were transfected transiently with the corresponding plasmids using lipofectamine 2000 (Life Technologies). Transfection efficiency was monitored by co-transfecting EGFP plasmid which codes for the enhanced green fluorescent protein. Electrophysiological recordings were performed between 24 and 36 h after transfection.
Whole-cell patch-clamp recordings in DRG neurons (small diameter, […]) and HEK293 cells were operated at room temperature (23–25 °C) using EPC-10 amplifier and Patch Master Software (HEKA). […] Currents were sampled at 10 kHz and low-pass filtered at 2.9 kHz. […] The calcium-free external solution contained (in mM) 140 NaCl, 5 KCl, 0.5 EGTA, 1 MgCl2, 10 Glucose and 10 HEPES, with pH adjusted to 7.4 by NaOH and osmolarity 300–310 mOsm. The 0.5 mM EGTA was replaced by 2 mM CaCl2 for the recordings in DRG neurons. TRPA1 currents development was monitored with repetitive injections of 300 ms duration voltage ramps from −100 to +100 mV every 2 s and the holding potential was set to 0 mV for 50 ms, existing in both sides of the voltage ramp. To record inward currents in DRG neurons, we conducted voltage clamp at holding membrane potential of −70 mV. Solutions were switched using a gravity-fed continuous focal perfusion system.

hens = type: in vivo, hen
Protocol: The chosen adult Hyline Brown hens were raised individually in stainless steel wire cages. After 7 days of acclimatization, the chosen hens were randomly divided into groups (n=6–10 for each group). The hens in the delayed neuropathy groups were administered a single dose of 750 mg kg^−1 TOCP and repeated doses of 75 mg kg^−1 malathion by gavage. TOCP and malathion were dissolved in corn oil and administered at 0.65 ml kg^−1. In the HC030031 treatment groups, 100 mg kg^−1 HC030031 was administered by gavage daily beginning at day 0 or day 11. All hens were examined daily for signs of delayed neurotoxicity. A five-point graded scale was used to describe the clinical symptoms of delayed neuropathy, with 0 indicating normal ambulation; (1) suspected ataxia (lack of strength in the legs and tottering); (2) mild ataxia (slow, clumsy and unsteady gait); (3) gross ataxia (waddling gait and staggering and falling despite being active); (4) mild paralysis (typical paralytic posture and lame appearance); and (5) complete paralysis (unable to maintain posture, stand up or move at all), as described previously.

hTRPA1 = biological target: T2, hTRPA1 (Homo sapiens, UniProt O75762); experiment: cell-based; type: cell-based; settings: for activation of hTRPA1 whole-cell currents: 30 μM, calcium-free external solution; for activation of hTRPA1 whole-cell currents by NTE inhibitors: 100 μM
T2 construct: expressed in transfected cells; host or cells: HEK293, transient, EGFP plasmid co-transfected
T2 sequence (O75762 whole entry): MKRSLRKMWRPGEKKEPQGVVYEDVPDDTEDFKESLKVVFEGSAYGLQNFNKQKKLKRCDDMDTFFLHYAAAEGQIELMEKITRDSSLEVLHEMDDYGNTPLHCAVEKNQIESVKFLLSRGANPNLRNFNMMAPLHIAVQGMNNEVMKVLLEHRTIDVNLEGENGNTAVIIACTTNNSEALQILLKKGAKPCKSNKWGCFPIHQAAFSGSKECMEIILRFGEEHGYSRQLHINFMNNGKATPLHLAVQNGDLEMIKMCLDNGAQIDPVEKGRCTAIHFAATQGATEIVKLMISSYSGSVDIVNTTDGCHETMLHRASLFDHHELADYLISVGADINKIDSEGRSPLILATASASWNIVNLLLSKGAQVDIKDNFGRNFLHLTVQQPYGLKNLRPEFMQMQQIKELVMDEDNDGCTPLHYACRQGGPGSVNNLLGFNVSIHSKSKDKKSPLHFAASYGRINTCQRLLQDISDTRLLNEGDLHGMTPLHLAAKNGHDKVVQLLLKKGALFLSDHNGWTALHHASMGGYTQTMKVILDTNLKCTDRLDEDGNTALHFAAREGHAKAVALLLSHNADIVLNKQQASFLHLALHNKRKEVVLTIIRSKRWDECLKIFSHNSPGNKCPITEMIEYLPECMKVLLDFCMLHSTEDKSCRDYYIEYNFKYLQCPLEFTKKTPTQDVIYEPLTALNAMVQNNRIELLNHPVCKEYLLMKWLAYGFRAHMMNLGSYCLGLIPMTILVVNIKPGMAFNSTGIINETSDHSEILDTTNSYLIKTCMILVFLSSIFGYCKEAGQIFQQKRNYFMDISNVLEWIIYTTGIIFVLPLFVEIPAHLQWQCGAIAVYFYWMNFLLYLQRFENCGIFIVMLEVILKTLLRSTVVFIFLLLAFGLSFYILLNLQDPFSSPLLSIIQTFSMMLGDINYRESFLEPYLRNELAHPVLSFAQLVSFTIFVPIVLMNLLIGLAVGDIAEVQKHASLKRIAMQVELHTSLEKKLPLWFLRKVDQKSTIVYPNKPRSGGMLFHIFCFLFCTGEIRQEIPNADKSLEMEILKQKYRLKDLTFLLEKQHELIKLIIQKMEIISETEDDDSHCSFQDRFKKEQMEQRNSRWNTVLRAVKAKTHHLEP
Protocol: as §1, with “Human embryonic kidney 293 (HEK293) cells were cultured in DMEM containing 10% (vol/vol) heat-inactivated fetal bovine serum, 100 units ml^−1 penicillin–streptomycin and 2 mM L-glutamine at 37 °C in a humidity-controlled sterile incubator with 5% CO2. All” for “All”
(§2) Whole-cell patch-clamp recordings in DRG neurons (small diameter, […]) and HEK293 cells were operated at room temperature (23–25 °C) using EPC-10 amplifier and Patch Master Software (HEKA). […] Currents were sampled at 10 kHz and low-pass filtered at 2.9 kHz. The internal solution was as follows (in mM): 140 CsCl, 10 HEPES, 5 EGTA, 0.1 CaCl2 and 1 MgCl2, with pH adjusted to 7.2 by CsOH and osmolarity 295–300 mOsm. The calcium-free external solution contained (in mM) 140 NaCl, 5 KCl, 0.5 EGTA, 1 MgCl2, 10 Glucose and 10 HEPES, with pH adjusted to 7.4 by NaOH and osmolarity 300–310 mOsm. The 0.5 mM EGTA was replaced by 2 mM CaCl2 for the recordings in DRG neurons. TRPA1 currents development was monitored with repetitive injections of 300 ms duration voltage ramps from −100 to +100 mV every 2 s and the holding potential was set to 0 mV for 50 ms, existing in both sides of the voltage ramp. To record inward currents in DRG neurons, we conducted voltage clamp at holding membrane potential of −70 mV. Solutions were switched using a gravity-fed continuous focal perfusion system.

mTRPA1 = mTRPA1 (Mus musculus, UniProt Q8BLA8); experiment: FDSS Ca2+-influx assay, HEK293 cells stably expressing mTRPA1; type: cell-based; parameters: expressed in transfected cells
Sequence of mTRPA1 (Q8BLA8 whole entry): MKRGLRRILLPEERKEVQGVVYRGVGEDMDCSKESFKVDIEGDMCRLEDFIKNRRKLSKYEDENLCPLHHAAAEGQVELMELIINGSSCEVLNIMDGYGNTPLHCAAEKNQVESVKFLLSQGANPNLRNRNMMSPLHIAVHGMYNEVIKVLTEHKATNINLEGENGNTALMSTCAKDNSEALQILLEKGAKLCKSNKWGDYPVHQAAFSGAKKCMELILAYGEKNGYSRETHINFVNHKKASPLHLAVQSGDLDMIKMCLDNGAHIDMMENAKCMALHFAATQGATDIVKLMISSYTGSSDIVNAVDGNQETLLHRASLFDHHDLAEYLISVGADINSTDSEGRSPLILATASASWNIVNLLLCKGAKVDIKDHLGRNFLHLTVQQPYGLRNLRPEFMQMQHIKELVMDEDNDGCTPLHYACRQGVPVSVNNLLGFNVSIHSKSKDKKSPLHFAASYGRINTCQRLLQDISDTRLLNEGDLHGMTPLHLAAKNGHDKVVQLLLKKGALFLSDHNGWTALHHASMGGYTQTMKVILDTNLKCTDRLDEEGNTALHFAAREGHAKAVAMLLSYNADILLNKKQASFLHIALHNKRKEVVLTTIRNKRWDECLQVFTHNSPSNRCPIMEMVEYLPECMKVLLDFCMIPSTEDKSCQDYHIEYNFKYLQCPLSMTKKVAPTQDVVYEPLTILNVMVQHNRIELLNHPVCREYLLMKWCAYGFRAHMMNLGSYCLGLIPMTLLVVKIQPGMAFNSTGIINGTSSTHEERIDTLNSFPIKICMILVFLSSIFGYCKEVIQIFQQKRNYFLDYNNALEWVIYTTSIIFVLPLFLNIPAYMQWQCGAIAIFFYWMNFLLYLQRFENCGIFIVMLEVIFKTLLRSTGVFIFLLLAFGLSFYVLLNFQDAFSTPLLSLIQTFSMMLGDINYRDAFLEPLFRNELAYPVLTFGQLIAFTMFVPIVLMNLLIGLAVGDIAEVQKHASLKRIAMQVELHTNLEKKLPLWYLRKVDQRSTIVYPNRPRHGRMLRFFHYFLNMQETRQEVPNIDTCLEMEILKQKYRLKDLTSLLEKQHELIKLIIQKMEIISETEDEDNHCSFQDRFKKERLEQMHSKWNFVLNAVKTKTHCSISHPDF
Protocol: Ca^2+-influx assays were carried out using HEK293 cells stably expressing mTRPA1 channels with an FDSS screening system (Hamamatsu, Japan). Before the start of the assay, HEK293-mTRPA1 cells were plated onto poly-D-Lysine (40 μg ml^−1) coated 96-well black clear bottom plate with the cell density of 300 000 cells per milliliter in DMEM supplemented with 10% (vol/vol) fetal bovine serum, 200 μg ml^−1 Hygromycin B, 15 μg ml^−1 Blasticidin S HCL and 0.3 μg ml^−1 doxycycline, which could induce the expression of mTRPA1. The 96-well plate was then put in sterile incubator overnight. The following day, Ca^2+ influx dye Fluo-4/AM stock was diluted to 2 μM with bath solution, and added (50 μl per well) in place of the culture medium. The plate was then incubated to load the Fluo-4/AM into cells for 60 min at 37 °C in dark environment. During the incubation, we prepared the compound plate (96-well) and the margin of plate was set as blank control due to the fringing effect. At the end of dye loading period, the remnant dye was removed using bath solution to wash the 96-well cell plate twice and then add 80 μl bath solution per well.

mouse DRG neurons [1] = experiment: Single-cell calcium imaging (Fura-2/AM) of isolated DRG neurons; type: cell-based
Protocol: (§3) DRG neurons were isolated from young C57 BL/6 mice (4–5 weeks). The sections of thoracic and lumbar DRG neurons were rapidly isolated in calcium and magnesium-free PBS with low temperature conditions (ice-bath environment). The isolated tissues were cut into pieces with scissor and incubated for 30 min with 0.1% collagenase and 0.025% trypsin which were diluted by DMEM-F12 at 37 °C. After digestion, neurons were gently dissociated using Pasteur pipettes and then plated onto poly-D-lysine pre-coated glass cover slips. DRG neurons were cultured for 24 h before use.
Calcium influx signals were monitored using the ratio metric fluorescent indicator dye Fura-2/AM at room temperature (23–25 °C). Cells were incubated with 2 μM Fura-2/AM, which was generated by diluting the stock solution with normal external solution, for 30 min at 37 °C. […] The maximum excitation wave length of Fura-2/AM was changed to 340 nm from 380 nm when combined with calcium ions. Fura-2/AM was excited at 340 and 380 nm with a rapid switching monochromator obtained from TILL Photonics, and the mean fluorescence intensity ratios (F340/F380) reflected real-time changes in the concentration of intracellular free calcium ions. The external solution used in the DRG whole-cell patch-clamp recordings was also used for calcium imaging. Solutions were switched using a gravity-fed continuous focal perfusion system.

mouse DRG neurons [2] = experiment: Whole-cell patch-clamp of small-diameter DRG neurons; type: cell-based
Protocol: as §3, §2

mice [3] = experiment: Behavioral testing of mice (paw-licking time after intraplantar injection); type: in vivo, mouse; settings: WT mice; AITC 10 μl 5%, malathion 10 μl 30%, intraplantar
Protocol: The chosen mice were allowed to acclimate to the experimental environment for at least 2 h before testing. Intraplantar injection of 5% AITC and 30% malathion (10 μl) was achieved using separate injectors. Spontaneous pain evoked by the compounds was assessed by measuring the time (s) the mice spent on licking. For the HC030031 groups, 200 mg kg^−1 HC030031 was intragastrically administered, and then the test was conducted after 1 h. The testing phase was divided into two parts: 0–10 min and 11–60 min.

mice [4] = experiment: Transmission electron microscopy of local nerve fibers in mice; type: in vivo, mouse; settings: WT mice; plantar injection, 5% AITC or 30% malathion
Protocol: For mice, subcutaneous tissue from the site of exposure was removed and fixed by immediate immersion in ice-cold 2.5% glutaraldehyde. Subsequently, the samples were post-fixed in 1% OsO4 for 1 h, dehydrated with an ethanol series and embedded in epon resin. Sixty-nanometer ultra-thin sections were double stained with lead citrate and uranyl acetate and examined using an electron microscopy.

Question: For `CN1CCC(=C2c3ccccc3CC(=O)c3sccc32)CC1` [ketotifen], which IC50 (cTRPA1) is on record?
Answer: 5.79 ± 1.18 µM

Question: What about the “effect on TOCP-induced symptoms (OPIDN scores)” value (hens; hens, 100 mg kg−1 daily by gavage from day 0) of the same compound?
Answer: significantly alleviated

Question: With `CCOP(=S)(OCC)Oc1nc(Cl)c(Cl)cc1Cl` [chlorpyrifos] as the compound, how does the “activation of hTRPA1 whole-cell currents” value (hTRPA1) read?
Answer: activated

Question: And the EC50 (mTRPA1; HEK293 cells, change in [Ca2+]i, read-out: EC50, activation of mTRPA1)?
Answer: 10 to 40 µM

Question: How did the “activation of hTRPA1 whole-cell currents by NTE inhibitors” value (shortened to “activation … by NTE inhibitors”) (hTRPA1) turn out when `O=S(=O)(Cl)Cc1ccccc1` [Phenylmethanesulfonyl chloride] was run?
Answer: activated

Question: What does the source list for `C=CCN=C=S` [AITC, allyl isothiocyanate]?
Answer: activation of hTRPA1 whole-cell currents (hTRPA1): activated; [Ca2+]i response of DRG neurons from Trpa1−/− mice (mouse DRG neurons [1]; Trpa1−/− neurons): thoroughly unresponsive; neurons displaying a robust increase in [Ca2+]i (mouse DRG neurons [1]; wild-type small-diameter neurons, sequential application of AITC and malathion, 197/451): ~ 44%; action potential firing in WT small-diameter neurons (mouse DRG neurons [2]; 100 μM): bursts of action potentials; currents in neurons from Trpa1−/− mice (mouse DRG neurons [2]; Trpa1−/− neurons, 17/17): failed to induce currents; nocifensive behavior (paw-licking) after plantar injection (mice [3]): nociception-like response; nerve fiber damage around the injection site (TEM) (mice [4]): damage of the myelin sheath

Question: With `CNCC[C@H](Oc1cccc2ccccc12)c1cccs1` [duloxetine] as the compound, how does the IC50 (cTRPA1; manual whole-cell patch-clamp, TOCP-induced currents, read-out: IC50 on cTRPA1 channels) read?
Answer: 4.69 ± 1.4 µM

Question: What about the “effect on TOCP-induced symptoms (OPIDN scores)” value (hens; in vivo) of the same compound?
Answer: significantly alleviated

Question: Which “activation of hTRPA1 whole-cell currents” value (hTRPA1) does the source give for `CCOP(=S)(OCC)O/N=C(\C#N)c1ccccc1` [phoxim] here?
Answer: activated

Question: What about the EC50 (mTRPA1) of the same compound?
Answer: 10 to 40 µM

Question: Which “activation of hTRPA1 whole-cell currents” value (hTRPA1) does the source give for `COP(=O)(OC)OC(Br)C(Cl)(Cl)Br` (stereo not shown) [naled] here?
Answer: activated

Question: And the EC50 (mTRPA1)?
Answer: 10 to 40 µM

Question: With `O=S(=O)(Cl)c1ccccc1` [Benzenesulfonyl chloride] as the compound, how does the “activation … by NTE inhibitors” value (hTRPA1) read?
Answer: activated

Question: `COc1nn(CSP(=S)(OC)OC)c(=O)s1` [methidathion] was tested. Which “activation of hTRPA1 whole-cell currents” value (hTRPA1) did it give?
Answer: activated

Question: What about the EC50 (mTRPA1) of the same compound?
Answer: 10 to 40 µM

Question: For `CCOC(=O)OCC` [Ethyl carbonate], which “activation … by NTE inhibitors” value (hTRPA1) is on record?
Answer: activated

Question: `CCSC(=O)N(CC(C)C)CC(C)C` [Butylate] was tested. Which “activation … by NTE inhibitors” value (hTRPA1) did it give?
Answer: activated

Question: Which “activation of hTRPA1 whole-cell currents” value (hTRPA1) does the source give for `COP(=S)(OC)Oc1ccc(SC)c(C)c1` [fenthion] here?
Answer: activated

Question: And the EC50 (mTRPA1)?
Answer: 10 to 40 µM
